# Measurements published in patent publication US20220031871A1, “ANTIBODIES FOR CHELATED RADIONUCLIDES AND CLEARING AGENTS” (Hoffmann-La Roche Inc., priority 2018, published 2022).
# Marks after values point to notes of the source that are not given here.
# System: BxPC3 tumors
# Assay: Protocol 93a: efficacy and biodistribution of CEA-PRIT
# Format: in vivo, SCID mice
# Protocol: The bispecific antibodies were compared side-by-side in single- and double-cycle treatment regimens.
# Groups A-G represent the treated mice that were followed up for assessment of efficacy, whereas groups H-L comprise mice that were sacrificed for biodistribution purposes 24 h after their last ^212Pb-DOTAM injection.
# Solid xenografts were established by subcutaneous injection of cells in RPMI (BxPC3) or DMEM (LS174T) media mixed 1:1 with Corning® Matrigel® basement membrane matrix (growth factor reduced; cat No. 354230).
# For protocol 93a, mice (age 7 weeks) were injected s.c. into the right flank with 5×10^6 BxPC3 cells (passage 33) in 100 μl RPMI/Matrigel. Twelve days after tumor cell injection, mice were sorted into experimental groups with an average tumor volume of 235 mm^3.
# To minimize re-ingestion of radioactive urine/feces after treatment cycle 1, cages were changed 4 hours after ^212Pb-DOTAM administration, and then again at 24 h p.i. For cycle 2, mice were placed in cages with grilled floors for 4 hours after ^212Pb-DOTAM administration, before being transferred to new cages with standard bedding. All cages were then changed at 24 h p.i., as after cycle 1. The tumor development in the mice was followed through repeated calipering three times a week. If needed, additional calipering was performed in the gaps between scheduled measurements. The body weight of the animals was measured repeatedly in the same fashion. Mice whose tumor volume reached 3000 mm^3 were immediately euthanized. Other factors taken into account for euthanasia for ethical reasons were body weight loss, tumor status (e.g. ulceration) and general appearance of the animal. Wet food was provided to all animals starting from five days after the radioactive injection if mandated by an acute loss of body weight (collective or individual) due to radiation-induced toxicity, until all individuals had recovered sufficiently.
# The following organs and tissues were harvested from groups A-G at the time of euthanasia: bladder, ovaries, liver, spleen, kidneys, femur (including bone marrow), colon, jejunum, stomach, and tumor. Unexpected or abnormal conditions were noted and photographed. Tissues were immediately put in 10% neutral buffered formalin (4° C.) and then transferred to PBS (4° C.) after 5 days. The formalin-fixed samples were then shipped to Roche Pharma Research and Early Development, Roche Innovation Center Basel, for further processing and analysis.
# Mice in groups H, J, and L were sacrificed and necropsied 24 hours after their first and only injection of ^212Pb-DOTAM; groups I and K were sacrificed and necropsied 24 hours after their second ^212Pb-DOTAM injection. The following organs and tissues were harvested: blood, bladder, small intestine, colon, spleen, pancreas, kidneys, liver, lung, heart, femoral bone, muscle, tail, and tumor. Collected samples were weighed and measured for radioactivity, and the percent injected dose per gram of tissue (% ID/g) subsequently calculated, including corrections for decay and background.
# [1] = labelled group 30 + 30 μCi 212Pb-DOTAM, multiple test level = 0.00238
structure (smiles),measurement,setting,value
NC(=O)CN1CCN(CC(N)=O)CCN(CC(N)=O)CCN(CC(N)=O)CC1.[212Pb+2] [^212Pb-DOTAM],tumor growth inhibition (TGI),"day 47, 30+30 μCi, compared with PBS",15.8%
same,"Pairwise Log-Rank Test, survival, p vs PRIT-0175 30 + 30 μCi",[1],0.0032*
same,"Pairwise Log-Rank Test, survival, p vs PRIT-0213 30 + 10 μCi",[1],0.0001*
same,"Pairwise Log-Rank Test, survival, p vs PRIT-0213 30 + 30 μCi",[1],0.8474
same,"Pairwise Log-Rank Test, survival, p vs PRIT-0214 30 + 10 μCi",[1],<.0001*
same,"Pairwise Log-Rank Test, survival, p vs PRIT-0214 30 + 30 μCi",[1],0.0685
same,"Pairwise Log-Rank Test, survival, p vs Vehicle (PBS)",[1],0.5271
same,"Pairwise Wilcoxon Test, survival, p vs PRIT-0175 30 + 30 μCi",[1],0.0042*
same,"Pairwise Wilcoxon Test, survival, p vs PRIT-0213 30 + 10 μCi",[1],0.0004*
same,"Pairwise Wilcoxon Test, survival, p vs PRIT-0213 30 + 30 μCi",[1],0.8704
same,"Pairwise Wilcoxon Test, survival, p vs PRIT-0214 30 + 10 μCi",[1],0.0002*
same,"Pairwise Wilcoxon Test, survival, p vs PRIT-0214 30 + 30 μCi",[1],0.0827
same,"Pairwise Wilcoxon Test, survival, p vs Vehicle (PBS)",[1],0.1439
